Tests used:
Experiment in all cases: DRaCALA, one-site saturation fit
Format in all cases: binding
[1] = target: T1, wild-type RNAP with DksA (Sites 1 and 2) (Escherichia coli, UniProt P0A800+P0A8T7+P0ABS1, P0ABS1:K98A)
T1 construct: gene rpoZ; recombinant core RNAP saturated with omega plus saturating purified DksA; with DNA-directed RNA polymerase subunit alpha; DNA-directed RNA polymerase subunit beta

[2] = target: T2, wild-type RNAP-GreB complex (Escherichia coli, UniProt P0A800+P0A8T7); conditions: read-out: Kd,app
T2 construct: gene rpoZ; recombinant core RNAP saturated with omega plus purified GreB; ppGpp at Site 1; with DNA-directed RNA polymerase subunit alpha; DNA-directed RNA polymerase subunit beta; Transcription elongation factor GreB

[3] = target: T3, wild-type RNAP (without DksA; Site 1 only) (Escherichia coli, UniProt P0A800+P0A8T7); conditions: read-out: Kd,app
T3 construct: gene rpoZ; recombinant core RNAP, alpha, beta, beta' from one plasmid and omega from a second plasmid, omega saturating; with DNA-directed RNA polymerase subunit alpha; DNA-directed RNA polymerase subunit beta

[4] = target: T4, wild-type RNAP-TraR complex (Escherichia coli, UniProt P0A800+P0A8T7); conditions: Site 1; TraR present; labelled compound [32P]-ppGpp; unreliable (printed 'at least'; curve did not plateau); non-equilibrium assay
T4 construct: gene rpoZ; recombinant core RNAP saturated with omega plus purified TraR (encoded by F element); ppGpp at Site 1; with DNA-directed RNA polymerase subunit alpha; DNA-directed RNA polymerase subunit beta; Protein TraR

[5] = target: T5, wild-type RNAP with DksA (Sites 1 and 2) (Escherichia coli, UniProt P0A800+P0A8T7+P0ABS1); conditions: read-out: Kd,app
T5 construct: gene rpoZ; recombinant core RNAP saturated with omega plus saturating purified DksA; with DNA-directed RNA polymerase subunit alpha; DNA-directed RNA polymerase subunit beta

[6] = target: T6, wild-type RNAP with DksA (Sites 1 and 2) (Escherichia coli, UniProt P0A800+P0A8T7+P0ABS1, P0ABS1:R129A)
T6 construct: gene rpoZ; recombinant core RNAP saturated with omega plus saturating purified DksA; with DNA-directed RNA polymerase subunit alpha; DNA-directed RNA polymerase subunit beta

[7] = target: T7, wild-type RNAP (without DksA; Site 1 only) (Escherichia coli, UniProt P0A800+P0A8T7, P0A800:DEL2-5)
T7 construct: gene rpoZ; recombinant core RNAP, alpha, beta, beta' from one plasmid and omega from a second plasmid, omega saturating; with DNA-directed RNA polymerase subunit alpha; DNA-directed RNA polymerase subunit beta

[8] = target: T8, RNAPΔω (no DksA; lacking Sites 1 and 2) (Escherichia coli, UniProt P0A8T7); conditions: read-out: Kd,app
T8 construct: gene rpoC; RNAP lacking omega, purified from a ΔrpoZ strain, no DksA added; with DNA-directed RNA polymerase subunit alpha; DNA-directed RNA polymerase subunit beta

[9] = target: T9, RNAPΔω with DksA (Site 2 only) (Escherichia coli, UniProt P0A8T7+P0ABS1); conditions: read-out: Kd,app
T9 construct: gene rpoC; with DNA-directed RNA polymerase subunit alpha; DNA-directed RNA polymerase subunit beta

## Nc1nc2c(ncn2[C@@H]2O[C@H](COP(=O)(O)OP(=O)(O)O)[C@@H](OP(=O)(O)OP(=O)(O)O)[C@H]2O)c(=O)[nH]1 [ppGpp, guanosine 5'-diphosphate 3'-diphosphate]
[1]
  Kd: ~1.3 µM
[2]
  Kd: ~6.4 µM
[3]
  Kd: 6.1 ± 1.3 µM
[4]
  Kd,app: > 4.2 ± 0.6 µM
[5]
  Kd: 3.3 ± 1.2 µM
[6]
  Kd: ~1.8 µM
[7]
  Kd: > 100 µM
[8]
  Kd: > 100 µM
[9]
  Kd: 7.9 ± 1.3 µM
